A short description of this data set: molar enthalpy of vaporization or sublimation. The following applies: 298.15 K; Liquid; calvet microcalorimetry.

The structures appear in SMILES notation. Numbers after ± are expanded uncertainties.

For `C1CSCCN1` [thiomorpholine], the molar enthalpy turned out to be 12.9 ± 0.717 kcal/mol.
As to `C1COCCN1` [tetrahydro-1,4-oxazine], the molar enthalpy is 11.1 ± 0.191 kcal/mol.

These data come from the NIST ThermoML archive (doi:10.1021/je4007162).
